Measurements reported in PubChem BioAssay (NCI).
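Protocol summary: plate cells (96-well), add compound at 5 concentrations, incubate 48 h, interpolate endpoints linearly. Definition used: TGI = concentration required for complete inhibition of growth.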

What was measured:
Assay in all cases: DTP human tumour cell line panel, 48 h
CAKI-1 renal = system: CAKI-1 renal
OVCAR-3 ovarian = system: OVCAR-3 ovarian
DU-145 prostate = system: DU-145 prostate
SK-MEL-5 melanoma = system: SK-MEL-5 melanoma
EKVX NSCLC = system: EKVX NSCLC
MCF7 breast = system: MCF7 breast
SK-MEL-28 melanoma = system: SK-MEL-28 melanoma
SF-295 CNS = system: SF-295 CNS
HCT-15 colon = system: HCT-15 colon
SW-620 colon = system: SW-620 colon
MDA-MB-435 = system: MDA-MB-435
HL-60(TB) leukemia = system: HL-60(TB) leukemia
LOX IMVI melanoma = system: LOX IMVI melanoma
SN12C renal = system: SN12C renal
NCI/ADR-RES ovarian = system: NCI/ADR-RES ovarian
MOLT-4 leukemia = system: MOLT-4 leukemia
SF-539 CNS = system: SF-539 CNS
MDA-MB-231 breast = system: MDA-MB-231 breast
RPMI-8226 leukemia = system: RPMI-8226 leukemia
RXF 393 renal = system: RXF 393 renal
SNB-19 CNS = system: SNB-19 CNS
COLO 205 colon = system: COLO 205 colon
SNB-75 CNS = system: SNB-75 CNS
MALME-3M melanoma = system: MALME-3M melanoma
HCC-2998 colon = system: HCC-2998 colon
BT-549 breast = system: BT-549 breast
OVCAR-4 ovarian = system: OVCAR-4 ovarian
HS 578T breast = system: HS 578T breast
SF-268 CNS = system: SF-268 CNS
786-0 renal = system: 786-0 renal
IGROV1 ovarian = system: IGROV1 ovarian
HOP-92 NSCLC = system: HOP-92 NSCLC
MDA-N = system: MDA-N
TK-10 renal = system: TK-10 renal
CCRF-CEM leukemia = system: CCRF-CEM leukemia
K-562 leukemia = system: K-562 leukemia
NCI-H23 lung = system: NCI-H23 lung
NCI-H522 lung = system: NCI-H522 lung
A549 NSCLC = system: A549 NSCLC
SR leukemia = system: SR leukemia
ACHN renal = system: ACHN renal
SK-MEL-2 melanoma = system: SK-MEL-2 melanoma
HCT-116 colon = system: HCT-116 colon
UACC-62 melanoma = system: UACC-62 melanoma
HT29 colon = system: HT29 colon
SK-OV-3 ovarian = system: SK-OV-3 ovarian
HOP-62 NSCLC = system: HOP-62 NSCLC
M14 melanoma = system: M14 melanoma
OVCAR-8 ovarian = system: OVCAR-8 ovarian
T-47D breast = system: T-47D breast
OVCAR-5 ovarian = system: OVCAR-5 ovarian
UO-31 renal = system: UO-31 renal
PC-3 prostate = system: PC-3 prostate
U251 CNS = system: U251 CNS
NCI-H226 lung = system: NCI-H226 lung
UACC-257 melanoma = system: UACC-257 melanoma
KM12 colon = system: KM12 colon
A498 renal = system: A498 renal
NCI-H460 lung = system: NCI-H460 lung

Measured: TGI

c1ccc2[nH]c(C3CCCCO3)nc2c1 (stereo not given)
not listed: A498 renal | NCI-H460 lung
> 100 µM: all other assays above

CN1CCCN(C)CCCN(C)CCCN(C)CCC1
not listed: HL-60(TB) leukemia | LOX IMVI melanoma | SN12C renal | SF-539 CNS | SNB-75 CNS | HOP-92 NSCLC | A498 renal | NCI-H460 lung
> 100 µM: all other assays above

COCC1OC(OC2OCC3OC4(OCC(O)(C(C)OC)C5OCOC54)OC3C2OC)C(OC)C(O)C1OC1OC(C)C(OC)C(OC2OC(C)C3OC4(CC(O)C(OC5CC(OC6CC(C)([N+](=O)[O-])C(OC)C(C)O6)C(OC(=O)c6c(C)c(Cl)c(O)c(Cl)c6OC)C(C)O5)C(C)O4)OC3(C)C2O)C1O (stereo not given)
not listed: MCF7 breast | MALME-3M melanoma
> 100 µM: all other assays above
